Results reported in publication PMC10553834, “Differentiating the roles of Mycobacterium tuberculosis substrate binding proteins, FecB and FecB2, in iron uptake” (PLOS Pathogens, 2023).

Assays:
Type in all cases: binding
FecB R141S = FecB R141S (Mycobacterium tuberculosis, UniProt O53291, R141S)
FecB L163R = FecB L163R (Mycobacterium tuberculosis, UniProt O53291, L163R)
FecB Q233S = FecB Q233S (Mycobacterium tuberculosis, UniProt O53291, Q233S)
FecB R240S = FecB R240S (Mycobacterium tuberculosis, UniProt O53291, R240S)
FecB Y270S = FecB Y270S (Mycobacterium tuberculosis, UniProt O53291, Y270S)
FecB E272S = FecB E272S (Mycobacterium tuberculosis, UniProt O53291, E272S)
FecB D332S = FecB D332S (Mycobacterium tuberculosis, UniProt O53291, D332S)
FecB Q336S = FecB Q336S (Mycobacterium tuberculosis, UniProt O53291, Q336S)

Question: For ferric-carboxymycobactin [Fe-cMB], which Kd (FecB R141S) is on record?
Answer: 1130 nM

Question: And the Kd (FecB L163R)?
Answer: 1160 nM

Question: What about the Kd (FecB Q233S) of the same substance?
Answer: 1050 nM

Question: What about the Kd (FecB R240S) of the same substance?
Answer: 1100 nM

Question: What about the Kd (FecB Y270S) of the same substance?
Answer: 940 nM

Question: What about the Kd (FecB E272S) of the same substance?
Answer: 1730 nM

Question: What about the Kd (FecB D332S) of the same substance?
Answer: 990 nM

Question: And the Kd (FecB Q336S)?
Answer: 1400 nM
